The subject of test [1] is Candida albicans 3669. As to the kind of experiment: antifungal plate test, MIC. Format: cell-based. The procedure: (§1) The following represents the typical procedure used. Compound to be tested was placed on sterile dried 1/4" plate disks, and allowed to dry. Agar plates were seeded with fungi and allowed to solidify. The impregnated disks were placed on the seeded Agar surface and incubated for the time required for the particular culture. Results are expressed in MIC (μg/ml) to inhibit growth.

The subject of test [2] is Candida albicans ATCC 10231. As to the kind of experiment: antifungal plate test, MIC. The conditions noted are these: ATCC10231. Format: cell-based. The procedure:
as §1

Test [3] relates to Candida albicans ATCC 38246. As to the kind of experiment: antifungal plate test, MIC. In kind it is cell-based. The conditions noted are these: ATCC38246. The protocol: as §1
Test [4] has as its system Candida albicans ATCC 38248. Nature of the test: antifungal plate test, MIC. Format: cell-based. The conditions noted are these: ATCC38248. The protocol:
as §1

For test [5], the system named is Candida albicans ATCC 38247. As to the kind of experiment: antifungal plate test, MIC. Format: cell-based. To be noted: ATCC38247. The protocol:
as §1

The subject of test [6] is pinch skin graft from male DBA/2 donors transplanted to male BALB/c recipients. As to the kind of experiment: survival time of pinch skin graft. In kind it is in vivo. To be noted: intraperitoneally; mean ± SD. The protocol:
Immunosuppressive activity was evaluated in an in vitro standard pharmacological test procedure to measure lymphocyte proliferation (LAF) and in two in vivo standard pharmacological test procedures. The first in vivo procedure was a popliteal lymph node (PLN) test procedure which measured the effect of compounds of this invention on a mixed lymphocyte reaction and the second in vivo procedure evaluated the survival time of a pinch skin graft.
The second in vivo test procedure is designed to determine the survival time of pinch skin graft from male DBA/2 donors transplanted to male BALB/c recipients. The method is adapted from Billingham R.E. and Medawar P.B., J. Exp. Biol. 28:385-402, (1951). Briefly, a pinch skin graft from the donor is grafted on the dorsum of the recipient as a homograft, and an autograft is used as control in the same region. […] Untreated recipients serve as rejection control. The graft is monitored daily and observations are recorded until the graft becomes dry and forms a blackened scab. This is considered as the rejection day. The mean graft survival time (number of days ±S.D.) of the drug treatment group is compared with the control group.

≈ marks a conversion by molar mass, not a printed value.

For orientation: MIC means the lowest concentration found to suppress growth. Read a high MIC as a need for much substance. On to `CO[C@H]1C[C@@H]2CC[C@@H](C)[C@@](O)(O2)C(=O)C(=O)N2CCCC[C@H]2C(=O)O[C@H]([C@H](C)C[C@@H]2CC[C@@H](OC(=O)CC[C@H](NC(=O)OC(C)(C)C)C(=O)OC(C)(C)C)[C@H](OC)C2)CC(=O)[C@H](C)/C=C(\C)[C@@H](O)[C@@H](OC)C(=O)[C@H](C)C[C@H](C)/C=C/C=C/C=C/1C` [Example 10, Rapamycin-42-ester with 5-(1,1-dimethyloxy)-4-[[(1,1-dimethylethoxy)carbonyl]amino]-5-oxopentanoicacid], for which the MIC was 0.4 µg/mL (≈ 0.333 µM) in test [1]; 0.2 µg/mL (≈ 0.167 µM) in test [2]; > 0.4 µg/mL in test [3]; 0.4 µg/mL (≈ 0.333 µM) in test [4]; 0.2 µg/mL (≈ 0.167 µM) in test [5]. Besides, the “Skin Graft (days + SD), mean graft survival time” value (“Skin Graft (days + SD)” for short) in test [6] is 12.7 ± 1.2 days.
Regarding `CO[C@H]1C[C@@H]2CC[C@@H](C)[C@@](O)(O2)C(=O)C(=O)N2CCCC[C@H]2C(=O)O[C@H]([C@H](C)C[C@@H]2CC[C@@H](OC(=O)CN(C)C(=O)OC(C)(C)C)[C@H](OC)C2)CC(=O)[C@H](C)/C=C(\C)[C@@H](O)[C@@H](OC)C(=O)[C@H](C)C[C@H](C)/C=C/C=C/C=C/1C` [Example 4, Rapamycin-42-ester with N-[(1,1-dimethylethoxy)carbonyl]-N-methylglycine], the MIC in test [1] came out at 0.2 µg/mL (≈ 0.184 µM); in test [2] it was 0.1 µg/mL (≈ 0.0921 µM); in test [3], 0.4 µg/mL (≈ 0.369 µM); in test [4], 0.1 µg/mL (≈ 0.0921 µM); in test [5] it was 0.1 µg/mL (≈ 0.0921 µM). Moreover, the “Skin Graft (days + SD)” value in test [6] is reported as 12.3 ± 0.5 days.
With `CO[C@H]1C[C@@H]2CC[C@@H](C)[C@@](O)(O2)C(=O)C(=O)N2CCCC[C@H]2C(=O)O[C@H]([C@H](C)C[C@@H]2CC[C@@H](OC(=O)CNC(=O)CNC(=O)OC(C)(C)C)[C@H](OC)C2)CC(=O)[C@H](C)/C=C(\C)[C@@H](OC(=O)CNC(=O)CNC(=O)OC(C)(C)C)[C@@H](OC)C(=O)[C@H](C)C[C@H](C)/C=C/C=C/C=C/1C` [Example 2, Rapamycin-31,42-diester with N-[(1,1-dimethylethoxy)carbonyl]-glycylglycine], the MIC in test [1] amounted to 0.1 µg/mL (≈ 0.0745 µM); in test [2], 0.1 µg/mL (≈ 0.0745 µM); in test [3], 0.2 µg/mL (≈ 0.149 µM); in test [4] it was 0.2 µg/mL (≈ 0.149 µM); in test [5], 0.2 µg/mL (≈ 0.149 µM). The “Skin Graft (days + SD)” value in test [6] is on record as 11.5 ± 0.6 days.
For `CO[C@H]1C[C@@H]2CC[C@@H](C)[C@@](O)(O2)C(=O)C(=O)N2CCCC[C@H]2C(=O)O[C@H]([C@H](C)C[C@@H]2CC[C@@H](OC(=O)[C@H](CCCCNC(=O)OC(C)(C)C)NC(=O)OC(C)(C)C)[C@H](OC)C2)CC(=O)[C@H](C)/C=C(\C)[C@@H](OC(=O)[C@H](CCCCNC(=O)OC(C)(C)C)NC(=O)OC(C)(C)C)[C@@H](OC)C(=O)[C@H](C)C[C@H](C)/C=C/C=C/C=C/1C` [Example 13, Rapamycin-31,42-diester with N^α, N^ε bis [(1,1-dimethylethoxy)carbonyl]-L-lysine], the MIC in test [1], in test [2], in test [3], in test [4] and in test [5] was > 0.4 µg/mL in each case. Besides, the “Skin Graft (days + SD)” value in test [6] was determined as 7.0 ± 0.6 days.
For the compound `CO[C@H]1C[C@@H]2CC[C@@H](C)[C@@](O)(O2)C(=O)C(=O)N2CCCC[C@H]2C(=O)O[C@H]([C@H](C)C[C@@H]2CC[C@@H](OC(=O)[C@H](CCC(=O)OC(C)(C)C)NC(=O)OC(C)(C)C)[C@H](OC)C2)CC(=O)[C@H](C)/C=C(\C)[C@@H](O)[C@@H](OC)C(=O)[C@H](C)C[C@H](C)/C=C/C=C/C=C/1C` [Example 6, Rapamycin-42-ester with 5-(1,1-dimethylethoxy)-2-[[(1,1-dimethylethoxy)carbonyl]amino]-5-oxopentanoic acid], the minimal inhibitory concentration (MIC) in test [1] was > 0.4 µg/mL; in test [2], 0.1 µg/mL (≈ 0.0834 µM); in test [3], > 0.4 µg/mL; in test [4], 0.4 µg/mL (≈ 0.333 µM); in test [5] it was 0.2 µg/mL (≈ 0.167 µM). In test [6], the “Skin Graft (days + SD)” value is on record as 11.5 ± 3.5 days.
In the case of `CO[C@H]1C[C@@H]2CC[C@@H](C)[C@@](O)(O2)C(=O)C(=O)N2CCCC[C@H]2C(=O)O[C@H]([C@H](C)C[C@@H]2CC[C@@H](OC(=O)[C@H](CC(=O)OCc3ccccc3)NC(=O)OC(C)(C)C)[C@H](OC)C2)CC(=O)[C@H](C)/C=C(\C)[C@@H](OC(=O)[C@H](CC(=O)OCc2ccccc2)NC(=O)OC(C)(C)C)[C@@H](OC)C(=O)[C@H](C)C[C@H](C)/C=C/C=C/C=C/1C` [Example 7, Rapamycin-31,42-diester with 2-[[(1,1-dimethylethoxy)carbonyl]amino]-4-oxo-4-(phenylmethoxy) butanoic acid], the “Skin Graft (days + SD)” value in test [6] is on record as 7.7 ± 1.5 days.
Consider `CO[C@H]1C[C@@H]2CC[C@@H](C)[C@@](O)(O2)C(=O)C(=O)N2CCCC[C@H]2C(=O)O[C@H]([C@H](C)C[C@@H]2CC[C@@H](OC(=O)CNC(=O)CNC(=O)OC(C)(C)C)[C@H](OC)C2)CC(=O)[C@H](C)/C=C(\C)[C@@H](O)[C@@H](OC)C(=O)[C@H](C)C[C@H](C)/C=C/C=C/C=C/1C` [Example 1, Rapamycin-42-ester with N-[(1,1-dimethylethoxy)carbonyl]-glycylglycine], for which the MIC in test [1], in test [2], in test [3], in test [4] and in test [5] was > 0.4 µg/mL each time. Also, in test [6], the “Skin Graft (days + SD)” value is reported as 12.0 ± 1.6 days.
For the compound `CO[C@H]1C[C@@H]2CC[C@@H](C)[C@@](O)(O2)C(=O)C(=O)N2CCCC[C@H]2C(=O)O[C@H]([C@H](C)C[C@@H]2CC[C@@H](OC(=O)CC[C@H](NC(=O)OC(C)(C)C)C(=O)OC(C)(C)C)[C@H](OC)C2)CC(=O)[C@H](C)/C=C(\C)[C@@H](OC(=O)CC[C@H](NC(=O)OC(C)(C)C)C(=O)OC(C)(C)C)[C@@H](OC)C(=O)[C@H](C)C[C@H](C)/C=C/C=C/C=C/1C` [Example 11, Rapamycin-31,42-diester with 5-(1,1-dimethylethoxy)-4-[[(1,1-dimethylethoxy)-carbonyl]-amino]-5-oxopentanoic acid], the MIC in test [1], in test [2], in test [3], in test [4] and in test [5] was > 0.4 µg/mL throughout. Also, the “Skin Graft (days + SD)” value in test [6] came out at 10.5 ± 1.3 days.
Take `CO[C@H]1C[C@@H]2CC[C@@H](C)[C@@](O)(O2)C(=O)C(=O)N2CCCC[C@H]2C(=O)O[C@H]([C@H](C)C[C@@H]2CC[C@@H](OC(=O)CN(C)C(=O)OC(C)(C)C)[C@H](OC)C2)CC(=O)[C@H](C)/C=C(\C)[C@@H](OC(=O)CN(C)C(=O)OC(C)(C)C)[C@@H](OC)C(=O)[C@H](C)C[C@H](C)/C=C/C=C/C=C/1C` [Example 3, Rapamycin-31,42-diester with N-[(1,1-dimethylethoxy)carbonyl]-N-methylglycine]: the MIC in test [1] was 0.4 µg/mL (≈ 0.318 µM); in test [2], 0.4 µg/mL (≈ 0.318 µM); in test [3], > 0.4 µg/mL; in test [4] it was > 0.4 µg/mL; in test [5], > 0.4 µg/mL. Moreover, the “Skin Graft (days + SD)” value in test [6] is reported as 9.0 ± 0.9 days.
On to `CO[C@H]1C[C@@H]2CC[C@@H](C)[C@@](O)(O2)C(=O)C(=O)N2CCCC[C@H]2C(=O)O[C@H]([C@H](C)C[C@@H]2CC[C@@H](OC(=O)C[C@H](NC(=O)OC(C)(C)C)C(=O)OCc3ccccc3)[C@H](OC)C2)CC(=O)[C@H](C)/C=C(\C)[C@@H](O)[C@@H](OC)C(=O)[C@H](C)C[C@H](C)/C=C/C=C/C=C/1C` [Example 9, Rapamycin-42-ester with 3-[[(1,1-dimethylethoxy)carbonyl]amino]-4-oxo-4-(phenylmethoxy) butanoic acid], for which the minimum inhibitory concentration (MIC) in test [1] is > 0.4 µg/mL; in test [2] it was 0.4 µg/mL (≈ 0.328 µM); in test [3], > 0.4 µg/mL; in test [4] it was > 0.4 µg/mL; in test [5] it was 0.4 µg/mL (≈ 0.328 µM). Further, the “Skin Graft (days + SD)” value in test [6] is 10.3 ± 0.8 days.
For `CO[C@H]1C[C@@H]2CC[C@@H](C)[C@@](O)(O2)C(=O)C(=O)N2CCCC[C@H]2C(=O)O[C@H]([C@H](C)C[C@@H]2CC[C@@H](OC(=O)C[C@H](NC(=O)OC(C)(C)C)C(=O)OCc3ccccc3)[C@H](OC)C2)CC(=O)[C@H](C)/C=C(\C)[C@@H](OC(=O)C[C@H](NC(=O)OC(C)(C)C)C(=O)OCc2ccccc2)[C@@H](OC)C(=O)[C@H](C)C[C@H](C)/C=C/C=C/C=C/1C` [Example 8, Rapamycin-31,42-diester with 3-[[(1,1-dimethylethoxy)carbonyl]amino]-4-oxo-4-(phenylmethoxy) butanoic acid], the MIC in test [1], in test [2], in test [3], in test [4] and in test [5] was > 0.4 µg/mL each time.

The values above are taken from patent US5130307A, “Aminoesters of rapamycin” (American Home Products Corporation, priority 1991, dated 1992).
